Results on twelve molecules are retold here after patent US20240270762A1, “PENICILLIN-BINDING PROTEIN INHIBITORS” (priority 2021, published 2024).

Converted amounts (≈) assume the structure as drawn.

The test system of one assay is A. baumannii ATCC 17978. Nature of the assay: microbe, parasite or virus in culture. Type of assay: cell-based. The note with it: Acinetobacter baumannii, ATCC17978, read-out: MIC, A. baumannii ATCC 17978.
For assay [1], the system named is P. aeruginosa (ΔmexAB-oprM). Nature of the assay: Broth microdilution MIC in iron-depleted CAMHB (IDM). The assay is classed as cell-based. The following applies: Pseudomonas aeruginosa; iron-depleted CAMHB (IDM); […]; read-out: Minimum inhibitory concentration, P. aeruginosa ΔmexAB-oprM.
Another assay deals with P. aeruginosa CDC-0090. The assay is described as follows: microbe, parasite or virus in culture. The following applies: Pseudomonas aeruginosa, CDC0090, read-out: Minimum inhibitory concentration, P. aeruginosa CDC-0090. The assay is classed as cell-based.
Assay [2] has as its system B. thailandensis ATCC 700388. Nature of the assay: microbe, parasite or virus in culture. Type of assay: cell-based. The following applies: Burkholderia thailandensis, ATCC700388, read-out: Minimum inhibitory concentration (MIC), B. thailandensis ATCC 700388.
A further assay has as its system P. aeruginosa CDC-0095. Nature of the assay: microbe, parasite or virus in culture. The assay is classed as cell-based. The note with it: Pseudomonas aeruginosa, CDC0095, read-out: Minimum inhibitory concentration, P. aeruginosa CDC-0095.
For assay [3], the target named is T1, PBP3 from Pseudomonas aeruginosa (PAO1) (Pseudomonas aeruginosa, UniProt G3XD46).
T1 construct: made in house
The assay is described as follows: Bocillin-FL fluorescence polarization competition binding, P. aeruginosa PBP3. The following applies: Binding affinity to P. aeruginosa PBP3; fluorescence polarization competition binding assay using Bocillin-FL; read-out: P. aeruginosa PBP3 Potency. The method in brief:
(§1)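 Purified PBP was preincubated with inhibitor (E. coli PBP3 1.5 μM, 30 min; P. aeruginosa PBP3 0.75 μM, A. baumannii PBP3 0.2 μM and PBP1a 1 μM, 15 min), then Bocillin-FL (0.1 μM; 0.05 μM for PBP1a) added and FP read up to 60 min. EC50 = 50% loss of bound probe.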
On the technique in general: Fluorescence polarisation rises when a labelled molecule tumbles more slowly, as on binding a larger partner.

A further assay concerns P. aeruginosa CDC-0110. The assay is described as follows: microbe, parasite or virus in culture. The following applies: Pseudomonas aeruginosa, CDC0110, read-out: Minimum inhibitory concentration, P. aeruginosa CDC-0110. Type of assay: cell-based.
The test system of a further assay is A. baumannii 1258916. The assay is described as follows: microbe, parasite or virus in culture. The assay is classed as cell-based, Acinetobacter baumannii. The following applies: Acinetobacter baumannii, 1258916, read-out: MIC, A. baumannii 1258916.
The target in assay [4] is T2, PBP3 from Acinetobacter baumannii (ATCC 19606) (Acinetobacter baumannii, UniProt A0ABX6CK25).
T2 sequence (A0ABX6CK25 64-610): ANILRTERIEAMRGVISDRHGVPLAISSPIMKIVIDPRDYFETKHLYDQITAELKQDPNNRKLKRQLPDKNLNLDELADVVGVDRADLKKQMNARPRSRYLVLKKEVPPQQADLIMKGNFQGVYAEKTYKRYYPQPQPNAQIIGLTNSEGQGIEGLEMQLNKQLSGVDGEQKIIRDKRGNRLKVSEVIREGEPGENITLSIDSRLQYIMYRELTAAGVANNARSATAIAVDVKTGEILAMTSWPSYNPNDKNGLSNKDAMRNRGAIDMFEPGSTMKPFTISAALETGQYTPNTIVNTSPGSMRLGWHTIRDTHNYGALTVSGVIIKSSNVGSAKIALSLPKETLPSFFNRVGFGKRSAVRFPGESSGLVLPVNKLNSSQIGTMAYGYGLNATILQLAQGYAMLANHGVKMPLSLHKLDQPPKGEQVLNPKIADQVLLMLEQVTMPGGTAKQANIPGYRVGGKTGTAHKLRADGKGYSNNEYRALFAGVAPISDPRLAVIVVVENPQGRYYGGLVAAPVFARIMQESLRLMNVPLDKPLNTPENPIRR
The assay is described as follows: Bocillin-FL fluorescence polarization competition binding, A. baumannii PBP3. The note with it: fluorescence polarization competition binding assay using Bocillin-FL; read-out: A. baumannii PBP3 Potency. The method in brief: as §1

The next assay deals with P. aeruginosa CDC-0054. Nature of the assay: microbe, parasite or virus in culture. The following applies: Pseudomonas aeruginosa, CDC0054, read-out: Minimum inhibitory concentration, P. aeruginosa CDC-0054. Type of assay: cell-based.

T1 sequence (G3XD46 whole entry): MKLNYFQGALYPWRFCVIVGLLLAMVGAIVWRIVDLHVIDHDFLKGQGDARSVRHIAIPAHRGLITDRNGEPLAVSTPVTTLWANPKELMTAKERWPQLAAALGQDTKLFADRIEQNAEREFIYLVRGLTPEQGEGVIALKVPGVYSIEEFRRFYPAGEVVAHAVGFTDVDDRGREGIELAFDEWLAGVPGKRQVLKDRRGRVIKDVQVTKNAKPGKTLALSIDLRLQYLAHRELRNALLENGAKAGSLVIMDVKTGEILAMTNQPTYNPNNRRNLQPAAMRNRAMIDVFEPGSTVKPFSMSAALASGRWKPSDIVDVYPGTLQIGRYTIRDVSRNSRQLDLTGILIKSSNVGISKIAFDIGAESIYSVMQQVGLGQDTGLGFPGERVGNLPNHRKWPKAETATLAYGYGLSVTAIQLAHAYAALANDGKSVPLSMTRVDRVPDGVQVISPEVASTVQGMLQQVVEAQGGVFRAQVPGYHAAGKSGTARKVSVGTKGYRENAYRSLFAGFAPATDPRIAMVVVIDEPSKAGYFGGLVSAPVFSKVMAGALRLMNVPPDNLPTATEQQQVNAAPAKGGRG

Turning to `O=C(O)c1c(F)ccc2c1OB(O)[C@@H](NC(=O)[C@H](NC(=O)N1CCN(C3CCN(C(=O)c4ccc(F)c(O)c4)CC3)C1=O)c1cc(F)c(O)c(O)c1Cl)C2` (single isomer, unassigned) [Example 435], the MIC (in the assay on A. baumannii ATCC 17978; in [1]; in the assay on P. aeruginosa CDC-0090; in assay [2]; with P. aeruginosa CDC-0095; in the assay on P. aeruginosa CDC-0110) was below 1 µg/mL throughout. The MIC in the assay on A. baumannii 1258916 and with P. aeruginosa CDC-0054 was below 1 µg/mL in each case. Moreover, the IC50 in assay [3] was below 10 µM; in [4], 10 to 50 µM.
Turning to `O=C(O)c1c(F)ccc2c1OB(O)[C@@H](NC(=O)[C@H](NC(=O)N1CCN(C3CCN(C(=O)c4cc(O)cc(F)c4)CC3)C1=O)c1cc(F)c(O)c(O)c1Cl)C2` (single isomer, unassigned) [Example 436], the MIC (in the assay with A. baumannii ATCC 17978; in [1]; with P. aeruginosa CDC-0090; in [2]; with P. aeruginosa CDC-0095; in the assay with P. aeruginosa CDC-0110) was below 1 µg/mL throughout. The MIC with A. baumannii 1258916 and in the assay on P. aeruginosa CDC-0054 was below 1 µg/mL each time. Besides, the IC50 in assay [3] and in [4] was below 10 µM in each case.
Regarding `O=C(O)c1c(F)ccc2c1OB(O)[C@@H](NC(=O)[C@H](NC(=O)N1CCN(C3CCN(C(=O)c4ccc(F)c(O)c4F)CC3)C1=O)c1cc(F)c(O)c(O)c1Cl)C2` (single isomer, unassigned) [Example 437], the MIC (in the assay on A. baumannii ATCC 17978; in assay [1]; in the assay with P. aeruginosa CDC-0090; in [2]; in the assay on P. aeruginosa CDC-0095; in the assay on P. aeruginosa CDC-0110) was below 1 µg/mL in each case. Also, the MIC in the assay on A. baumannii 1258916 and in the assay on P. aeruginosa CDC-0054 was below 1 µg/mL each time. Moreover, the IC50 in assay [3] and in [4] was below 10 µM throughout.
Turning to `O=C(O)c1c(F)ccc2c1OB(O)[C@@H](NC(=O)[C@H](NC(=O)N1CCN(C3CCN(C(=O)c4c(F)ccc(O)c4F)CC3)C1=O)c1cc(F)c(O)c(O)c1Cl)C2` (single isomer, unassigned) [Example 439], the MIC is below 1 µg/mL in the assay on A. baumannii ATCC 17978; below 1 µg/mL in assay [1]; below 1 µg/mL in the assay with P. aeruginosa CDC-0090; below 1 µg/mL in assay [2]; 2 to 4 µg/mL (≈ 2.52 to 5.04 µM) in the assay with P. aeruginosa CDC-0095; below 1 µg/mL in the assay on P. aeruginosa CDC-0110. Moreover, the MIC in the assay on A. baumannii 1258916 is below 1 µg/mL; in the assay on P. aeruginosa CDC-0054, 2 to 4 µg/mL (≈ 2.52 to 5.04 µM). Moreover, the IC50 in assay [3] and in [4] was below 10 µM in each case.
For `O=C(O)c1c(F)ccc2c1OB(O)[C@@H](NC(=O)[C@H](NC(=O)N1CCN(C3CCN(C(=O)c4c(F)ccc(O)c4Cl)CC3)C1=O)c1cc(F)c(O)c(O)c1Cl)C2` (single isomer, unassigned) [Example 440], the MIC (in the assay with A. baumannii ATCC 17978; in assay [1]; in the assay with P. aeruginosa CDC-0090; in [2]; with P. aeruginosa CDC-0095; in the assay with P. aeruginosa CDC-0110) was below 1 µg/mL throughout. Moreover, the MIC in the assay on A. baumannii 1258916 and in the assay with P. aeruginosa CDC-0054 was below 1 µg/mL each time. For the same molecule, the IC50 in assay [3] and in assay [4] was below 10 µM each time.
As to `O=C(O)c1c(F)ccc2c1OB(O)[C@@H](NC(=O)[C@H](NC(=O)N1CCN(C3CCN(C(=O)c4cc(F)c(F)c(O)c4F)CC3)C1=O)c1cc(F)c(O)c(O)c1Cl)C2` (single isomer, unassigned) [Example 441], the MIC (in the assay on A. baumannii ATCC 17978; in assay [1]; with P. aeruginosa CDC-0090; in assay [2]; with P. aeruginosa CDC-0095; in the assay with P. aeruginosa CDC-0110) was below 1 µg/mL throughout. Besides, the MIC in the assay on A. baumannii 1258916 and in the assay on P. aeruginosa CDC-0054 was below 1 µg/mL throughout. The IC50 in assay [3] and in [4] was below 10 µM throughout.
Take `O=C(O)c1c(F)ccc2c1OB(O)[C@@H](NC(=O)[C@H](NC(=O)N1CCN(C3CCN(C(=O)c4cc(O)cc(O)c4)CC3)C1=O)c1cc(F)c(O)c(O)c1Cl)C2` (single isomer, unassigned) [Example 442]: the MIC (in the assay on A. baumannii ATCC 17978; in assay [1]; in the assay on P. aeruginosa CDC-0090; in assay [2]; in the assay with P. aeruginosa CDC-0095; with P. aeruginosa CDC-0110) was below 1 µg/mL in each case. For the same molecule, the MIC with A. baumannii 1258916 and in the assay with P. aeruginosa CDC-0054 was below 1 µg/mL throughout. Besides, the IC50 in assay [3] and in assay [4] was below 10 µM each time.
Regarding `O=C(O)c1c(F)ccc2c1OB(O)[C@@H](NC(=O)[C@H](NC(=O)N1CCN(C3CCN(C(=O)c4cc(O)c(F)c(O)c4)CC3)C1=O)c1cc(F)c(O)c(O)c1Cl)C2` (single isomer, unassigned) [Example 443], the MIC (with A. baumannii ATCC 17978; in assay [1]; in the assay with P. aeruginosa CDC-0090; in assay [2]; with P. aeruginosa CDC-0095; in the assay on P. aeruginosa CDC-0110) was below 1 µg/mL each time. For the same molecule, the MIC in the assay on A. baumannii 1258916 and in the assay with P. aeruginosa CDC-0054 was below 1 µg/mL each time. Moreover, the IC50 in assay [3] and in assay [4] was below 10 µM throughout.
For the molecule `O=C(O)c1c(F)ccc2c1OB(O)[C@@H](NC(=O)[C@H](NC(=O)N1CCN(C3CCN(C(=O)c4cc(O)c(F)c(O)c4F)CC3)C1=O)c1cc(F)c(O)c(O)c1Cl)C2` (single isomer, unassigned) [Example 444], the MIC (with A. baumannii ATCC 17978; in assay [1]; with P. aeruginosa CDC-0090; in assay [2]; in the assay on P. aeruginosa CDC-0095; with P. aeruginosa CDC-0110) was below 1 µg/mL throughout. The MIC with A. baumannii 1258916 and in the assay on P. aeruginosa CDC-0054 was below 1 µg/mL in each case. Also, the IC50 in assay [3] and in assay [4] was below 10 µM in each case.
As for `O=C(O)c1c(F)ccc2c1OB(O)[C@@H](NC(=O)[C@H](NC(=O)N1CCN(C3CCN(C(=O)Nc4cccc(O)c4F)CC3)C1=O)c1cc(F)c(O)c(O)c1Cl)C2` (single isomer, unassigned) [Example 446], the MIC (in the assay on A. baumannii ATCC 17978; in assay [1]; in the assay on P. aeruginosa CDC-0090; in [2]; with P. aeruginosa CDC-0095; in the assay on P. aeruginosa CDC-0110) was below 1 µg/mL in each case. Besides, the MIC with A. baumannii 1258916 and with P. aeruginosa CDC-0054 was below 1 µg/mL throughout. The IC50 in [3] and in assay [4] was below 10 µM throughout.
As to `O=C(O)c1c(F)ccc2c1OB(O)[C@@H](NC(=O)[C@H](NC(=O)N1CCN(C3CCN(C(=O)Nc4cc(O)ccc4Cl)CC3)C1=O)c1cc(F)c(O)c(O)c1Cl)C2` (single isomer, unassigned) [Example 448], the MIC (with A. baumannii ATCC 17978; in [1]; with P. aeruginosa CDC-0090; in assay [2]; in the assay with P. aeruginosa CDC-0095; in the assay on P. aeruginosa CDC-0110) was below 1 µg/mL each time. Besides, the MIC in the assay with A. baumannii 1258916 and in the assay with P. aeruginosa CDC-0054 was below 1 µg/mL in each case. The IC50 in assay [3] and in [4] was below 10 µM in each case.
In the case of `O=C(O)c1c(F)ccc2c1OB(O)[C@@H](NC(=O)[C@H](NC(=O)N1CCN(C3CCN(C(=O)Nc4ccc(F)c(O)c4)CC3)C1=O)c1cc(F)c(O)c(O)c1Cl)C2` (single isomer, unassigned) [Example 449], the MIC (with A. baumannii ATCC 17978; in assay [1]; in the assay with P. aeruginosa CDC-0090; in assay [2]; in the assay on P. aeruginosa CDC-0095; in the assay with P. aeruginosa CDC-0110) was below 1 µg/mL in each case. The MIC in the assay on A. baumannii 1258916 and with P. aeruginosa CDC-0054 was below 1 µg/mL in each case. Further, the IC50 in [3] and in [4] was below 10 µM in each case.
